Article PMC8761492 (Life Science Alliance, 2022)
Where “and” joins values, the source holds several entries; their conditions need not be identical. Equal entries are not always repeated. Starred links: 1 amine or outer side, 2 acyl side, 3 side chain; linkers in the order of their positions; H or OH if unused. Positions of bridges follow the written chain, without caps; N, C: chain ends. Non-standard residues stand in square brackets, D forms with d. Residues, ends and D or L forms follow the SMILES beside them. *: point of attachment. X1 = CC[C@H](C)[C@@H](N[*:1])[C@@H](O)CC(=O)O[C@H](C(=O)[C@H](C)C(=O)[*:2])C(C)C; NMeY = CN[C@@H](Cc1ccc(O)cc1)C(=O)O; dNMeL = CN[C@H](CC(C)C)C(=O)O; Pyruvoyl = CC(=O)C(=O)*

Columns and labels:
[1] = Plasma protein binding by equilibrium dialysis, rat plasma; format: in vitro ADME; conditions: male, CD, independent of drug concentration
Procedure: The binding of plitidepsin to plasma proteins was determined in vitro at three concentrations (100, 250 and 500 ng/ml) in male rat, dog and human plasma ([53]).
Rat (CD), beagle dog, and human blood was collected at Aptuit Srl from at least three male donors, and plasma prepared by centrifuging blood at 2,000g, 4°C for 10 min. Human plasma was obtained from healthy and fasted male volunteers. Na-heparin was used as the anti-coagulant for all species. All plasma was stored at approximately −20°C and thawed only once, on the day of the experiment.
Plasma protein binding was assessed using Rapid Equilibrium Dialysis plates pre-loaded with equilibrium dialysis membrane inserts (MWCO ∼8 kD).
Separation of free compound from protein-bound material was achieved by dialysis of the sample through the membrane under appropriate shaking at 37°C. The suitability of equilibrium dialysis as a method for protein binding determination of plitidepsin was assessed.
Before experimentation, the time required to reach equilibrium was determined in male rat and human plasma at one concentration (250 ng/ml) and six selected time points (2, 3, 4, 5, 6, and 7 h) at 37°C. […]

HCoV-229E-GFP virus = assay: microbe, parasite or virus in culture; format: cell-based, human coronavirus 229E; conditions: Huh-7 cells
SARS-CoV-2 = assay: SARS-CoV-2-induced cytopathic effect in Vero E6 cells (CellTiter-Glo); conditions: read-out: IC50 against SARS-CoV-2-induced cytopathic effects, 3 d post infection

Structure (SMILES): CC[C@H](C)[C@H]1NC(=O)[C@@H](NC(=O)[C@@H](CC(C)C)N(C)C(=O)[C@@H]2CCCN2C(=O)C(C)=O)[C@@H](C)OC(=O)[C@H](Cc2ccc(OC)cc2)N(C)C(=O)[C@@H]2CCCN2C(=O)[C@H](CC(C)C)NC(=O)[C@@H](C)C(=O)[C@H](C(C)C)OC(=O)C[C@@H]1O [Plitidepsin] (Pyruvoyl-P[dNMeL]T[X1]LP[NMeY](Me); ester 3-C)
- fraction unbound [1]: 0.04
- concentration of plitidepsin with antiviral effect on HCoV-229E-GFP (HCoV-229E-GFP virus; as low as, equals 0.5 nM): ≤ 0.555 µg/L
- IC50 (HCoV-229E-GFP virus; Human coronavirus 229E, study protocol, read-out: IC50 assumed from the HCoV-229E-GFP experiment): 0.5 nM and 0.000555 µg/mL
- IC50 (SARS-CoV-2): 38 nM
